Values of other authors, collected in patent US6503745B1, “Cyclopentane and cyclopentene compounds and use for detecting influenza virus” (priority 1998, dated 2003).
Read-outs that look alike come from different tables or passages of the source.

Tests used:
influenza [1] = conditions: in animals
influenza [2] = conditions: in human volunteers

SMILES	binder of influenza neuraminidase (influenza neuraminidase)	in vivo antiviral activity (influenza [1])	in vivo antiviral activity (influenza [2])
CC(=O)NC1C(NC(=N)N)C=C(C(=O)O)OC1[C@H](O)[C@H](O)CO (stereo partly shown) [GG167, 2,3-didehydro-2,4-dideoxy-4-guanidinyl-N-acetylneuraminic acid]	potent binder	potent in vivo antiviral activity	potent in vivo antiviral activity
CCC(CC)O[C@@H]1C=C(C(=O)O)C[C@H](N)[C@H]1NC(C)=O [GS 4071, (3R,4R,5S)-4-acetamido-5-amino-3-(1-ethylpropoxy)-1-cyclohexene-1-carboxylic acid]	potent binders	–	–
